Experimental data: the NIST ThermoML archive (doi:10.1016/j.jct.2007.05.011)

Test: xn = mol fraction of the nth substance listed
Details: 101 kPa, Liquid; for mass density: Vibrating tube method

NCCO.O=CO [2-hydroxyethylammonium formate] + O
Details	mass density, 308.15 K [kg/m3]	mass density, 310.65 K [kg/m3]	mass density, 313.15 K [kg/m3]	mass density, 315.65 K [kg/m3]	speed of sound, 305.65 K [m/s]	speed of sound, 308.15 K [m/s]	speed of sound, 310.65 K [m/s]	speed of sound, 313.15 K [m/s]
x2 = 0	1169.39	1167.62	1165.84	1164.06	1690.8	1684.8	1678.7	1672.7
x2 = 0.047	1169.74	1168.1	1166.46	1164.82	1723.5	1718.4	1713.4	1708.3
x2 = 0.108	1168.41	1166.77	1165.14	1163.51	1725.2	1720.2	1715.2	1710.2
x2 = 0.199	1165.49	1163.86	1162.22	1160.59	1726.8	1721.9	1717.1	1712.1
x2 = 0.311	1160.67	1159.05	1157.42	1155.79	1728.3	1723.6	1718.9	1714.1
x2 = 0.4	1155.85	1154.22	1152.6	1150.97	1728	1723.5	1718.9	1714.4
x2 = 0.492	1149.4	1147.79	1146.17	–	1727.3	1723	1718.7	1714.3
x2 = 0.601	1138.94	1137.34	1135.74	–	1723.5	1719.6	1715.6	1711.7
x2 = 0.699	1125.12	1123.56	1121.98	–	1717.4	1714.1	1710.7	1707.2
x2 = 0.8	1103.38	1101.88	1100.38	–	1697.5	1695.2	1692.8	1690.4
x2 = 0.9	1066.39	1065.06	1063.71	–	1649	1648.9	1648.6	1648.2
x2 = 0.95	1036.99	1035.83	1034.64	–	1598.9	1600.8	1602.4	1603.8
